# Measurements published in patent publication US20170235917A1, “SYSTEMS AND METHODS FOR MONITORING AND CONTROLLING A CARD[…] OF A SUBJECT” (THE GENERAL HOSPITAL CORPORATION, priority 2014, published 2017).
# Like-named read-outs stand apart in the source and are kept apart here.
# Tests used:
# [1] = range across four pooled subject groups, cited from earlier work
# [2] = for 1/τ (inverse time constant of drug distribution and equilibration) / tD (delay): mean ± SD, five piglets
# Protocol: Five neonatal Yorkshire Duroc piglets of 10+/−3 d of age weighting 2.4+/−0.6 kg were pre-anesthetized with ketamine (33 mg/kg) and atropine (0.05 mg/kg), intubated, and anesthetized using 1.5-3.0% isoflurane while mechanically ventilated. Core body temperature was kept at 38+/−0.5° C. BP, HR, arterial O2 saturation, end-tidal CO2, fraction of inspired O2, and pulmonary compliance were continuously monitored. HR beyond 250 bpm was captured using the PC-Vet wireless ECG system or direct counting. The animals received intravenous heparin (200 units/kg/h), physiologic saline (10 mL/kg/h), and 10 g/dL of dextrose-water to adjust serum glucose levels using Genie Plus syringe pumps validated for stability of infusion rate. Serum electrolytes, base excess (−6 to +6), pH (7.20-7.45), partial arterial O2 pressure (80-120 mmHg) and partial arterial CO2 pressure (35-45 mmHg), and arterial O2 saturation (90-100%) were maintained in the target ranges using sodium bicarbonate, potassium chloride, lactated Ringer's solution, and ventilatory changes, respectively. Both femoral veins and left femoral artery were cannulated for fluid and drug administration, and arterial BP measurements and blood sampling, respectively. […] The baseline measurements were recorded after a 15-min postsurgical stabilization period, followed by the escalation of dose, and a 15-min washout period after the discontinuation of the medication. […] To deduce the rate of change of the hemodynamic parameters, the data obtained were subdivided into baseline, low dose (0.25 mcg/kg/min), medium dose (0.5 and 0.75 mcg/kg/min) and high dose (1, 1.5 and 2 mcg/kg/min). BP and HR were collected in real time at a sampling rate of 0.2 Hz.
smiles,measurement,setting,value
CNC[C@H](O)c1ccc(O)c(O)c1 [epinephrine],DBP,[1]; epinephrine 020 ng/kg/min,69-88 mmHg
same,HR,[1]; epinephrine 020 ng/kg/min,64-69 bpm
same,MAP,[1]; epinephrine 020 ng/kg/min,83-110 mmHg
same,SBP,[1]; epinephrine 020 ng/kg/min,112-153 mmHg
same,SVI,[1]; epinephrine 020 ng/kg/min,54-65 ml/m^2
same,DBP,[1]; epinephrine 040 ng/kg/min,66-83 mmHg
same,HR,[1]; epinephrine 040 ng/kg/min,68-73 bpm
same,MAP,[1]; epinephrine 040 ng/kg/min,82-106 mmHg
same,SBP,[1]; epinephrine 040 ng/kg/min,114-153 mmHg
same,SVI,[1]; epinephrine 040 ng/kg/min,55-68 ml/m^2
same,DBP,[1]; epinephrine 080 ng/kg/min,62-79 mmHg
same,HR,[1]; epinephrine 080 ng/kg/min,71-76 bpm
same,MAP,[1]; epinephrine 080 ng/kg/min,83-105 mmHg
same,SBP,[1]; epinephrine 080 ng/kg/min,124-158 mmHg
same,SVI,[1]; epinephrine 080 ng/kg/min,58-71 ml/m^2
same,DBP,[1]; epinephrine 120 ng/kg/min,61-79 mmHg
same,HR,[1]; epinephrine 120 ng/kg/min,72-81 bpm
same,MAP,[1]; epinephrine 120 ng/kg/min,84-109 mmHg
same,SBP,[1]; epinephrine 120 ng/kg/min,132-168 mmHg
same,SVI,[1]; epinephrine 120 ng/kg/min,59-74 ml/m^2
same,DBP,[1]; epinephrine 160 ng/kg/min,61-80 mmHg
same,HR,[1]; epinephrine 160 ng/kg/min,75-79 bpm
same,MAP,[1]; epinephrine 160 ng/kg/min,86-109 mmHg
same,SBP,[1]; epinephrine 160 ng/kg/min,136-170 mmHg
same,SVI,[1]; epinephrine 160 ng/kg/min,59-77 ml/m^2
same,1/τ (inverse time constant of drug distribution and equilibration),[2]; X = H (HR),4.1e−3 ± 4.5e−3
same,tD (delay),[2]; X = R (TPR),48.6 ± 17.6 s
same,1/τ (inverse time constant of drug distribution and equilibration),[2]; X = δV (SV),0.01 ± 0.02
same,tD (delay),[2]; X = δV (SV),29.1 ± 26.1 s
same,HR increase as share of its maximum response,"[2]; after the first dose escalation (0.25 mcg/kg/min), averaged over five piglets",55%
same,HR at which the response starts to saturate,"[2]; doses of 1-2 mcg/kg/min, one particular piglet",around 400 bpm
same,MAP response,"[2]; from the low-dose range, averaged over five piglets (FIG. 10)",persistently increases
